From paper PMC7948948 (The Journal of Biological Chemistry, 2021)
≈ marks a conversion by molar mass, not a printed value. Where “and” joins values, the source holds several entries; their conditions need not be identical. Identical values can stand only once. Entries after “also recorded” stand apart in the source; their conditions may differ. Like-named read-outs stand apart in the source and are kept apart here.

What was measured:
Mtb PheRS [1] = target: T1, Mtb PheRS (Mycobacterium tuberculosis, UniProt P9WFU3); settings: for Mode of inhibition with regard to Phe / Mode of inhibition with regard to ATP: Lineweaver-Burk plot; for Mode of inhibition with regard to ATP: no sulfate added
Mtb PheRS [2] = target: T1, Mtb PheRS; settings: for Km: read-out: Km, aminoacylation assay
Mtb PheRS [3] = target: T1, Mtb PheRS; test: ATP consumption assay (Kinase-Glo), Mtb PheRS; assay type: biochemical
Mtb PheRS [4] = target: T1, Mtb PheRS; test: biochemical; settings: read-out: IC50, AMP Glo, Mtb PheRS
Mtb PheRS [5] = target: T1, Mtb PheRS; test: biochemical
hFARS2 = target: T2, hFARS2 (Homo sapiens, UniProt O95363); test: biochemical; settings: for IC50: E. coli total tRNA 0.5 mg/ml, 1 h, read-out: IC50, Kinase Glo, hFARS2
T2 sequence (O95363 38-451 limits assumed): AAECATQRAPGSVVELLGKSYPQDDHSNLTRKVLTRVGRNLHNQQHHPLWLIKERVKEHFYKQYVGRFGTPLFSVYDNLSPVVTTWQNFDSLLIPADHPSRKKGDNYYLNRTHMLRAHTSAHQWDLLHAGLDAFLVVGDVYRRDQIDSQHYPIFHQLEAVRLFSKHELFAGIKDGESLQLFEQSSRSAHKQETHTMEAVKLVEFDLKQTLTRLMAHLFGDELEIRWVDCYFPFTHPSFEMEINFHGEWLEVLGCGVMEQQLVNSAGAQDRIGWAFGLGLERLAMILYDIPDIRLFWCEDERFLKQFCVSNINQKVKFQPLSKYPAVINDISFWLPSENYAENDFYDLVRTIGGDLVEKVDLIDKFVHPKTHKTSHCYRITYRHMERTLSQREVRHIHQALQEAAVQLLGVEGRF

hFARS1 = target: T3, hFARS1 (Homo sapiens, UniProt Q9Y285); test: biochemical; settings: for IC50: 50 nM enzyme, 2 μM ATP, 20 μM L-Phe, 1 mg/ml yeast total tRNA, 1 h, read-out: IC50, Kinase Glo, hFARS1
T3 sequence (Q9Y285 1-508): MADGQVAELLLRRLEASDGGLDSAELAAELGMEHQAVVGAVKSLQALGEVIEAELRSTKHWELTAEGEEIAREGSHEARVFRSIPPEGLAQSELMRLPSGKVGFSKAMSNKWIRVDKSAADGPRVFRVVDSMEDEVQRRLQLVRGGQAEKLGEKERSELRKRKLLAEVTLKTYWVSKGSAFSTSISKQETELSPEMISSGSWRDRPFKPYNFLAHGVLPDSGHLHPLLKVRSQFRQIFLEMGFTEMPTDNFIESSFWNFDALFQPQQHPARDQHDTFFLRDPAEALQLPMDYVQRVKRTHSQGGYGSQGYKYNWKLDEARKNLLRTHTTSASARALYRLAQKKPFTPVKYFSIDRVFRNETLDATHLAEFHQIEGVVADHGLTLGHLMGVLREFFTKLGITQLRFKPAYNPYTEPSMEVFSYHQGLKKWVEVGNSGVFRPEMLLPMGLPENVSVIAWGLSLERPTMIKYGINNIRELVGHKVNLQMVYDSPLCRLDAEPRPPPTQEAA
T3 sequence (Q9NSD9 1-589 partner): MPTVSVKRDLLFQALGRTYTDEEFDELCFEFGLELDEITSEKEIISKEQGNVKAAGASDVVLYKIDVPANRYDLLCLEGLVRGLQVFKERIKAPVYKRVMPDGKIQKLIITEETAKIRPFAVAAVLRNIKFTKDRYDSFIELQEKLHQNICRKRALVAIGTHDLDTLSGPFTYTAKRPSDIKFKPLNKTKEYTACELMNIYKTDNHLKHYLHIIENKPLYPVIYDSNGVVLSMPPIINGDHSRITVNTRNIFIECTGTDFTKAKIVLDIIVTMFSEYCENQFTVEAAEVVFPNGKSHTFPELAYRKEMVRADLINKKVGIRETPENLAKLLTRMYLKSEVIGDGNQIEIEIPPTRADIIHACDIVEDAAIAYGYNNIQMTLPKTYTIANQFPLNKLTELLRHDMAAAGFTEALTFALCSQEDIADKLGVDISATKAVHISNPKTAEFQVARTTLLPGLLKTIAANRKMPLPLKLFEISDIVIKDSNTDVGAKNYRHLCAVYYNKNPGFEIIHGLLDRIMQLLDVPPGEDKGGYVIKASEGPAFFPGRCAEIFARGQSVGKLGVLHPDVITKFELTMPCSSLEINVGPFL

Mtb H37Rv = test: MIC by microplate alamarBlue assay; assay type: cell-based, Mycobacterium tuberculosis; settings: for MIC: Mycobacterium tuberculosis, H37RV, n = 3, read-out: MIC against Mtb H37Rv
Mtb PheRS [6] = target: T1, Mtb PheRS; test: biochemical; settings: read-out: IC50, Malachite Green, Mtb PheRS
in vitro [7] = assay type: cell-based
Protocol: (§1) HEK293T, Vero E6, and HepG2 cells were cultured in Dulbecco's modified Eagle's medium plus 10% fetal bovine serum and 1% penicillin/streptomycin at 37 °C with 5% CO2. Plates of 96 wells were plated with 100 μl 1 × 10^5 cells/ml per well and incubated for 24 h before adding compound in serial dilutions. After another 48 h, 40 μl reagents of CellTiter-Glo cell viability assay (Promega) was added, and the plates were shaken at 400 rpm for 10 min in the dark. Luminescence was recorded with plate reader. The data were analyzed with GraphPad Prism 9.

PPase, PNPase = test: Counter-screen of PPi production coupled reaction, Mtb PheRS omitted; assay type: biochemical; settings: concentrations up to 20 μM
[8] = Cytotoxicity, CellTiter-Glo, Vero E6; assay type: cell-based; settings: African green monkey, Vero E6 cells
Protocol: as §1
(§2) HepG2 (A and B) is an immortal cell line derived from human liver cells. HEK-293T (C and
(§3) D) is a human embryonic kidney 293 cell line. Vero E6 is a cell line derived from African
(§4) green monkey kidney epithelial cells. […]

in vitro [9] = assay type: cell-based, human; settings: human
Protocol: as §1, §2, §3, §4

HEK-293T = test: in vitro; assay type: cell-based, human; settings: 48 h
Protocol: as §1, §2, §3, §4

WT H37Rv = test: microbe, parasite or virus in culture; assay type: cell-based; settings: Mycobacterium tuberculosis, 264 h, absorbance at 580 nm, 11 days, Gompertz fit
luciferase = test: Counter-screen of Kinase-Glo coupled reaction, Mtb PheRS omitted; assay type: biochemical; settings: concentrations up to 20 μM
in vitro [10] = assay type: cell-based; settings: human
Protocol: as §1, §2, §3, §4

human FAAH = settings: cited from earlier work
HepG2 = test: in vitro; assay type: cell-based; settings: human, 48 h
Protocol: as §1, §2, §3, §4

N[C@@H](Cc1ccccc1)C(=O)O = test: purified protein, by the assay type

T1 sequence (P9WFU3 whole entry): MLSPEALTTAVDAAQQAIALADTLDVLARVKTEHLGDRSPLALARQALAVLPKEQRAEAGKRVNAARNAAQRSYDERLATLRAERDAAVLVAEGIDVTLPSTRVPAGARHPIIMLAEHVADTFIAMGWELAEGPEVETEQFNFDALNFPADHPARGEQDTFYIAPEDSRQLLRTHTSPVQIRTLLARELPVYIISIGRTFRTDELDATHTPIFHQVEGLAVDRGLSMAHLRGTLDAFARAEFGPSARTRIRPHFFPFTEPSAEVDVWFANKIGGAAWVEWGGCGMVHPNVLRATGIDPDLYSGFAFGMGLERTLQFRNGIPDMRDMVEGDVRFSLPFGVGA
T1 sequence (P9WFU1 whole entry, further chain): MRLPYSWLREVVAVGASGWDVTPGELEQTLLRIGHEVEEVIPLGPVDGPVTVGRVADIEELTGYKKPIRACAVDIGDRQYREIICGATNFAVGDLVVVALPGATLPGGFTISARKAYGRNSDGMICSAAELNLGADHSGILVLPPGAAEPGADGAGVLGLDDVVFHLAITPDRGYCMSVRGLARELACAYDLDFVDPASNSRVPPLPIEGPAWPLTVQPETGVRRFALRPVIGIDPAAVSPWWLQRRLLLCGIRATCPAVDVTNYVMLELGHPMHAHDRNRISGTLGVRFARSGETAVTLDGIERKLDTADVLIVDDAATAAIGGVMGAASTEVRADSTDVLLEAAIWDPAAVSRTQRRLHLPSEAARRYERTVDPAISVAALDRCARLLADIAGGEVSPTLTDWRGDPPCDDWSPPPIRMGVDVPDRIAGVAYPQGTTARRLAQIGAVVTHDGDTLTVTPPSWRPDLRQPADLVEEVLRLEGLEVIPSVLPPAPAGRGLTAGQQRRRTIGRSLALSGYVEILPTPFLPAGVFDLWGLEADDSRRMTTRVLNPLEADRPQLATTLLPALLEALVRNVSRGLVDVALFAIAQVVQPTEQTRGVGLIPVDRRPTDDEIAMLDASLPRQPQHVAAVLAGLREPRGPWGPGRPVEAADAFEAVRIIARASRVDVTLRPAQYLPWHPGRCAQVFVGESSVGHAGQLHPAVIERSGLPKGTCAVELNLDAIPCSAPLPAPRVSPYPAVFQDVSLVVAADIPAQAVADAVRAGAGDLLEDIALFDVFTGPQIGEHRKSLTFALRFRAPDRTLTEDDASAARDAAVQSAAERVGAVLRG

Nc1ncnc2c1ncn2[C@@H]1O[C@H](COP(=O)(O)OP(=O)(O)OP(=O)(O)O)[C@@H](O)[C@H]1O [ATP]
Km (Mtb PheRS [1]; read-out: apparent Km, PPi production assay): 162 ± 11.6 µM
Km (Mtb PheRS [2]): 387 ± 279 µM
kcat, aminoacylation assay (Mtb PheRS [2]; substrate of Mtb PheRS): 0.405 ± 0.417 s⁻¹

O=C(Nc1cccc(S(=O)(=O)NCCc2c[nH]c3ccccc23)c1)Nc1nccs1 [GDI05-001]
IC50 (Mtb PheRS [3]): 1.72 ± 0.13 µM
IC50 (Mtb PheRS [4]): 0.87 ± 0.06 µM
IC50 (Mtb PheRS [5]): 1.34 µM
Ki (Mtb PheRS [5]; Ki in the Phe-competitive mode): 0.2 ± 0.01 µM
Mode of inhibition with regard to Phe (Mtb PheRS [1]): Phe competitive inhibitors
Mode of inhibition with regard to ATP (Mtb PheRS [1]): noncompetitive
IC50 (hFARS2): 85.4 µM
IC50 (hFARS1): > 200 µM
MIC (Mtb H37Rv): 145 µM (≈ 64 µg/mL)
IC50 (Mtb PheRS [6]): 0.52 ± 0.06 µM

O=C(Nc1cccnc1)N1CCC(Cc2cccc(Oc3ccc(C(F)(F)F)cn3)c2)CC1 [PF-3845]
IC50 (Mtb PheRS [3]): 2.65 ± 0.19 µM
CC50 (in vitro [7]; human, African green monkey): 16.9 to 25.8 µM
CC50 (in vitro [7]; two human cell lines, preliminary result, read-out: CC50 against human cell lines (range)): 16.9 to 21.7 µM
IC50 (Mtb PheRS [4]): 2.49 ± 0.19 µM
IC50 (Mtb PheRS [5]): 2.4 µM
Ki (Mtb PheRS [5]; Ki in the Phe-competitive mode): 1.7 ± 0.11 µM
Ki (Mtb PheRS [5]; Ki with regard to ATP when SO4 2- was absent, mixed inhibition mode, no sulfate): 1.08 ± 0.245 µM
Ki (Mtb PheRS [5]; Ki with regard to ATP, competitive, with sulfate, 5 mM (NH4)2SO4 in the PheRS enzyme reaction): ~0.73 µM and 0.73 µM
Mode of inhibition with regard to tRNAPhe (Mtb PheRS [1]): uncompetitive inhibitor; also recorded: uncompetitive inhibition mode
Mode of inhibition with regard to ATP in the presence of sulfate (Mtb PheRS [1]; 5 mM (NH4)2SO4): competitive inhibition mode; also recorded: ATP competitive inhibitor
Mode of inhibition with regard to Phe (Mtb PheRS [1]): Phe competitive inhibitors; also recorded: competitive inhibition mode
Mode of inhibition with regard to ATP (Mtb PheRS [1]): mixed inhibition mode
Inhibition of PPase and PNPase (PPi production coupled reaction) (PPase, PNPase): did not inhibit
IC50 (hFARS2): > 200 µM
Inhibition of human mitochondrial PheRS (hFARS2; concentrations up to 200 μM): does not inhibit
IC50 (hFARS1): > 200 µM
Inhibition of human cytoplasmic PheRS (hFARS1; concentrations up to 200 μM): does not inhibit
CC50 at 48 h [8]: 21.7 µM
CC50 (in vitro [9]; 48 h, CellTiter-Glo, read-out: CC50, HEK-293T): 16.9 ± 1.54 µM
CC50 (HEK-293T; CellTiter-Glo, read-out: CC50, HEK-293T): 16.9 µM
MIC (WT H37Rv): 220 µM (≈ 100 µg/mL)
Inhibition of luciferase (Kinase-Glo coupled reaction) (luciferase): did not inhibit
MIC (Mtb H37Rv): ~24 µM (≈ 11 µg/mL)
MIC against Mtb H37Rv (Mtb H37Rv; n = 3): ~23.87 µM (≈ 10.9 µg/mL)
IC50 (Mtb PheRS [6]): 1.95 ± 0.19 µM
CC50 (in vitro [10]; 48 h, CellTiter-Glo, read-out: CC50, HepG2): 21.7 ± 1.53 µM

O=C(Nc1cccnn1)N1CCC(=Cc2cccc(Oc3ccc(C(F)(F)F)cn3)c2)CC1 [PF-04457845]
IC50 (Mtb PheRS [3]): 9.76 ± 0.73 µM
CC50 at 48 h (in vitro [7]; human): 23.6 to 25.8 µM
CC50 (in vitro [7]; human, African green monkey): 16.9 to 25.8 µM
IC50 (Mtb PheRS [4]): 10.1 ± 1.02 µM
IC50 (Mtb PheRS [5]): 12 µM
IC50 (hFARS2): > 200 µM
IC50 (hFARS1): > 200 µM
CC50 at 48 h (in vitro [9]; CC50, HEK-293T): 23.6 ± 1.93 µM
CC50 (HEK-293T; human): 23.6 µM
kinact/Ki for covalent inhibition of human FAAH (human FAAH): 40,300 M^−1s^−1
IC50 (Mtb PheRS [6]): 11.7 ± 1.43 µM
CC50 at 48 h (in vitro [10]; CC50, HepG2): 25.8 ± 2.88 µM
CC50 (HepG2): 25.8 µM

N[C@@H](Cc1ccccc1)C(=O)O [Phe, phenylalanine]
Km (Mtb PheRS [2]): 68 ± 6.6 µM

(Mycobacterium tuberculosis H37Rv)
Km (N[C@@H](Cc1ccccc1)C(=O)O; pH 7.4): 18.10 ± 2.44 µM

Mtb PheRS (Mycobacterium tuberculosis H37Rv)
Km (N[C@@H](Cc1ccccc1)C(=O)O): 68.0 ± 6.6 µM
kcat (N[C@@H](Cc1ccccc1)C(=O)O): 1.1 ± 0.0517 s⁻¹
kcat/Km (N[C@@H](Cc1ccccc1)C(=O)O): 16200 M⁻¹ s⁻¹
